{"source": "patent US20180169019A1", "about": "“PROCESS FOR THE PREPARATION OF POROUS MICROPARTICLES” (BAYER PHARMA AKTIENGESELLSCHAFT, priority 2015, published 2018)", "assay": "Solubility in water and organic solvents", "type": "physicochemical", "data": [{"compound": "O=C(O)CCCCN(CCc1ccccc1OCc1ccc(CCc2ccccc2)cc1)Cc1ccc(C(=O)O)cc1", "note": "[Cinaciguat, 4-[((4-carboxybutyl)-{2-[(4-phenethylbenzyl)oxy]phenethyl}amino)methyl]benzoic acid]", "values": [{"measurement": "solubility in acetone", "value": "slightly soluble"}, {"measurement": "solubility in ethanol, methanol, ethyl acetate", "value": "very slightly soluble"}, {"measurement": "solubility in water and dichloromethane, acetonitrile", "value": "practically insoluble"}]}]}
